US5532263A, “Benzothiopyranoindazole antitumor agents” (priority 1995, dated 1996)
Where a name gives a salt, the structure may show the parent alone. Read-outs that look alike come from different tables or passages of the source.

Experiments:
[1] = tested as an antitumor agent (literature); cited from earlier work
HeLa cell topo II = HeLa cell topo II (Homo sapiens, UniProt P11388); test: Topoisomerase II inhibition: promotion of covalent complex formation between pBR322 DNA and topo II (SDS/K+ precipitation); assay type: biochemical; settings: read-out: topo II inhib EC50
HeLa cell topo II, sequence (P11388 whole entry): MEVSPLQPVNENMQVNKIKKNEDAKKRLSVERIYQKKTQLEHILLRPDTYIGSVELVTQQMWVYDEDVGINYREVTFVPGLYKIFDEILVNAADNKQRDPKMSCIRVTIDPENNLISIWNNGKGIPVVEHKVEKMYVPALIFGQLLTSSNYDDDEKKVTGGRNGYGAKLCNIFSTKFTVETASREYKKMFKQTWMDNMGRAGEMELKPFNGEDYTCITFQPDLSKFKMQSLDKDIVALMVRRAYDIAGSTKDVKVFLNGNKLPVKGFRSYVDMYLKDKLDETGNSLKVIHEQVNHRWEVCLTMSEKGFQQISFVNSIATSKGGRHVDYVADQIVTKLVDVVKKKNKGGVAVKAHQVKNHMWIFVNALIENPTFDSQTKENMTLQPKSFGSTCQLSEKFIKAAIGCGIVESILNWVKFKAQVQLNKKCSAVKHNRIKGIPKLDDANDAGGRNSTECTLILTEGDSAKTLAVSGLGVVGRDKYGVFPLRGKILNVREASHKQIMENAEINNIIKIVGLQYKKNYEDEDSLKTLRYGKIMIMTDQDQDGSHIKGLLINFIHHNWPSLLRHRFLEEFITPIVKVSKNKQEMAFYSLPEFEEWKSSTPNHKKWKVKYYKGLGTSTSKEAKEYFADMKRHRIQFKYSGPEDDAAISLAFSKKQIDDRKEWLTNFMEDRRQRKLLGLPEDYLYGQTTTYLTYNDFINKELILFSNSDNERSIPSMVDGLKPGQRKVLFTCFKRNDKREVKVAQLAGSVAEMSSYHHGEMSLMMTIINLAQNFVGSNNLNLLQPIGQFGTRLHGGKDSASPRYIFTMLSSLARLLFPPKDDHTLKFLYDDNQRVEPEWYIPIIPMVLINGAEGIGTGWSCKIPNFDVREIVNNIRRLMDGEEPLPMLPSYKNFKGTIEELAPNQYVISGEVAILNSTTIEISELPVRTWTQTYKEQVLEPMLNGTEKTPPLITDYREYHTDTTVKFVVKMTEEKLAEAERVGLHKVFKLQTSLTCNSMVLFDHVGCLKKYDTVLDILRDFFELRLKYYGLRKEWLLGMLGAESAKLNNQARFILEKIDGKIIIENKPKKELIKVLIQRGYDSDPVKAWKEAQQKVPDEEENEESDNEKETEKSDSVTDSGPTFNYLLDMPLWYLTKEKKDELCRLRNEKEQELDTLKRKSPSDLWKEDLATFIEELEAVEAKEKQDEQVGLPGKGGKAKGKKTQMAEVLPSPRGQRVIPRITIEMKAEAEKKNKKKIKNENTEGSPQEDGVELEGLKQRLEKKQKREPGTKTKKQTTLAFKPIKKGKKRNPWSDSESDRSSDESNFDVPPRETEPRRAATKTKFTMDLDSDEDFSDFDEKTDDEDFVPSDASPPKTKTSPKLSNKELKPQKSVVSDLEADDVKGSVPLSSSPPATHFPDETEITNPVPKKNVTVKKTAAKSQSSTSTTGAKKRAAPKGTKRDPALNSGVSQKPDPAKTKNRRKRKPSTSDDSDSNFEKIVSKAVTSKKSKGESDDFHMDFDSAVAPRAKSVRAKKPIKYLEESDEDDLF

calf thymus DNA = test: DNA intercalation: ethidium bromide displacement assay; assay type: binding; settings: displacement of 50% of calf thymus DNA bound ethidium bromide; average of two determinations
Text: A known ethidium bromide displacement assay is used to determine intercalation potency.

[2] = tested on: P388 mouse leukemia cells; test: In vitro cytotoxicity: clonogenic survival in soft agar; assay type: cell-based; settings: read-out: in vitro cytox IC50
Method: In Vitro Cytotoxicity This is measured by quantifying clonogenic survival in soft agar following a 1 hour transient exposure of P388 mouse leukemia cells to drug.

[3] = Murine antitumor activity versus Pancreatic Ductal Adenocarcinoma #03; assay type: in vivo; settings: mouse, in vivo, iv; administered intravenously, total dose; mice, Panc 03 study; read-out: MTD (maximum tolerated total dose)
Text: (§1) Murine Antitumor Activaty Versus Pancreatic Ductal Adenocarcinoma #03.
(§2) This is tumor growth inhibition, where T is the medium tumor burden in the treatment group times 100 at evaluation and C is the medium tumor burden in the control group at evaluation.
(§3) This is the maximum tolerated total dose administered intravenously in mg/kg.
(§4) This means the long term cures, the number of mice in the treatment group with no palpable tumor evidents after a minimum of 86 days/total number in treatment group. […]

[4] = tested on: Pancreatic Ductal Adenocarcinoma #03 (Panc 03); test: as above; assay type: in vivo; settings: versus Panc 03; for % T/C (tumor growth inhibition): intravenous, T/C <42% considered significant; for LTC (long term cures): mice with no palpable tumor after a minimum of 86 days/total number in treatment group
Text: as §1, §2, §3, §4

[5] = DNA precipitated equivalent to 50% of the maximum precipitated by m-AMSA
[6] = P388, 1 hour transient exposure, 50% reduction of clonogenic survival in soft agar
[7] = footnote j: first dose administered 4 days after tumor implantation
[8] = footnote k: bell-shaped dose response curve noted when determining the EC50, relative to 50% of m-AMSA maximum

| SMILES | antitumor activity [1] | EC50 (HeLa cell topo II; [5]) [nM] | EC50 (calf thymus DNA) [nM] | IC50 [2, 6] [nM] | MTD [3] [mg/kg] | % T/C (tumor growth inhibition) [4, 7] [%] | LTC (long term cures) [4] | % T/C (tumor growth inhibition) [4] [%] | EC50 (HeLa cell topo II; [8]) [nM] | IC50 ([2]; P388, 1 h) [nM] |
| --- | --- | --- | --- | --- | --- | --- | --- | --- | --- | --- |
| Cc1ccc2[nH]nc3c2c1Sc1ccccc1-3 [5-methyl-2H-[1]benzothiopyrano[4,3,2-cd]indazole] | inactive |  |  |  |  |  |  |  |  |  |
| CCN(CC)CCn1nc2c3c(c(CN)ccc31)Sc1ccccc1-2 [Ex 8] |  | > 250000 | 120 | 5800 | 72 | 25 | 0/5 |  |  |  |
| CCN(CC)CCn1nc2c3c(c(CNC(=O)OC)ccc31)Sc1ccccc1-2 [Ex 13, Methyl N-[[2-[(2-diethylamino)ethyl]-2H-[1]-benzothiopyrano(4,3,2-cd)indazol-5-yl]methyl) carbamate] |  | > 240000 | 2600 | 500 | 78 |  | 3/5 | 0 |  |  |
| CCN(CC)CCNc1ccc(CN(C)S(C)(=O)=O)c2sc3ccccc3c(=O)c12 [WIN33377, reference compound] |  |  | 18000 | 301 | 124 |  | 3/5 | 0 | 3000 |  |
| CCN(CC)CCn1nc2c3c(c(CNC=O)ccc31)Sc1ccc(OC)cc1-2 [Ex 6] |  | > 240000 | 1900 | 55000 | 231 |  | 3/5 | 0 |  |  |
| CCN(CC)CCn1nc2c3c(c(CNC(=O)OC)ccc31)Sc1ccc(OC)cc1-2 [Ex 14] |  | > 220000 | 790 | 45000 | 170 | 0 | 4/4 |  |  |  |
| CCN(CC)CCn1nc2c3c(c(CNC=O)ccc31)Sc1ccccc1-2 [Ex 5] |  | > 260000 | 1500 | 330 | 81 |  | 0/5 | 0 |  |  |
| CCN(CC)CCn1nc2c3c(c(CNC(=O)OC)ccc31)Sc1ccc(O)cc1-2 [Ex 16] |  |  | 1500 | 11 | 18 | 13 | 0/5 |  | 330 |  |
| CCN(CC)CCn1nc2c3c(c(CN)ccc31)Sc1ccc(OC)cc1-2 [Ex 9] |  | > 260000 | 130 | 13000 | 240 | 0 | 3/4 |  |  |  |
| CCN(CC)CCn1nc2c3c(c(CNS(C)(=O)=O)ccc31)Sc1ccccc1-2 [Ex 11, N-[[2-[2-(Diethylamino)ethyl]-2H-[1]-benzothiopyrano[4,3,2-cd]indazol-5-yl]methyl]methanesulfonamide] |  | > 230000 | 1800 | 500 | 72 |  | 0/5 | 0 |  |  |
| COc1cc(NS(C)(=O)=O)ccc1Nc1c2ccccc2nc2ccccc12 [mAMSA, reference compound] |  |  | 11000 |  | 48 |  | 0/5 | 0 |  | 151 |
| CCN(CC)CCn1nc2c3c(c(CNS(C)(=O)=O)ccc31)Sc1ccc(O)cc1-2 [Ex 15] |  |  | 2400 | 4.4 | 31 | 0 | 0/5 |  | 550 |  |
| CCN(CC)CCn1nc2c3c(c(CNS(C)(=O)=O)ccc31)Sc1ccc(OC)cc1-2 [Ex 12] |  | > 210000 | 1600 | 30000 | 208 |  | 3/5 | 0 |  |  |
| CCN(CC)CCn1nc2c3c(c(CNC)ccc31)Sc1ccccc1-2 [Ex 10, N-methyl-2-[(2-(Diethylamino)ethyl]-2H-[1]-benzothiopyrano[4,3,2-cd]indazole-5-methanaminedihydrochloride hydrate] |  | > 220000 | 180 | 16000 | 326 |  | 1/5 | 0 |  |  |
